Results on 16 compounds are retold here after ChEMBL document CHEMBL1159257, “Methyl ethers of podophyllotoxin-related cyclolignans” (J Nat Prod, 1995).

Each structure is given as a SMILES string.

What all share (format): functional, cell-based
For one assay, the system named is P388. The assay can be described thus: Cytotoxicity against mouse P388 cells.
A further assay has as its system A549. Nature of the assay: Cytotoxicity against human A549 cells.
The test system of the next assay is HT-29. Nature of the assay: Cytotoxicity against human HT-29 cells.

Regarding `COc1cc([C@@H]2c3cc4c(cc3[C@@H](OC)[C@@H](CO)[C@@H]2CO)OCO4)cc(OC)c1OC`, the IC50 in the assay on P388, in the assay on A549 and with HT-29 was 11.6 µM each time.

On to `COc1cc([C@@H]2c3cc4c(cc3[C@@H](OC)[C@@H](COC(C)=O)[C@H]2COC(C)=O)OCO4)cc(OC)c1OC`, for which the IC50 in the assay on P388, with A549 and with HT-29 was 9.7 µM each time.

For `COc1cc([C@@H]2c3cc4c(cc3[C@H](OC)[C@@H](COC(C)=O)[C@H]2COC(C)=O)OCO4)cc(OC)c1OC`, the IC50 with P388 is 19.4 µM; with A549 it was over 38.8 µM; with HT-29 it was 19.4 µM.

Consider `COc1cc([C@@H]2c3cc4c(cc3[C@H](OC)[C@H]3COC(=O)[C@@H]23)OCO4)cc(OC)c1OC`, for which the IC50 is 0.12 µM in the assay with P388, 0.12 µM with A549 and 0.23 µM in the assay with HT-29.

Turning to `COc1cc([C@@H]2c3cc4c(cc3[C@@H](OC)[C@@H](COC(C)=O)[C@@H]2COC(C)=O)OCO4)cc(OC)c1OC`, the IC50 in the assay on P388, in the assay with A549 and in the assay with HT-29 was 9.7 µM throughout.

As for `COc1cc([C@@H]2c3cc4c(cc3[C@@H](OC)[C@@H](CO)[C@H]2CO)OCO4)cc(OC)c1OC`, the IC50 in the assay with P388, in the assay with A549 and in the assay with HT-29 was 11.6 µM in each case.

For `COc1cc([C@@H]2c3cc4c(cc3[C@H](OC)[C@@H](CO)[C@H]2CO)OCO4)cc(OC)c1OC`, the IC50 with P388 was 23.2 µM; with A549 it was 46.3 µM; with HT-29 it was 23.2 µM.

On to `COc1cc([C@@H]2c3cc4c(cc3[C@@H](OC)[C@H]3COC(=O)[C@@H]23)OCO4)cc(OC)c1OC`, for which the IC50 in the assay with P388 is 0.1 µM; with A549, 0.13 µM; with HT-29 it was 0.06 µM.

As for `COc1cc([C@@H]2c3cc4c(cc3[C@@H](Cl)[C@H]3COC(=O)[C@H]23)OCO4)cc(OC)c1OC`, the IC50 with P388 is 0.6 µM; in the assay with A549, 0.6 µM; in the assay on HT-29 it was 1.2 µM.

Consider `COc1cc([C@@H]2c3cc4c(cc3[C@H](OC)[C@H]3COC(=O)[C@H]23)OCO4)cc(OC)c1OC`, for which the IC50 in the assay on P388, with A549 and in the assay with HT-29 was 0.06 µM each time.

For the compound `COc1cc([C@@H]2c3cc4c(cc3C=C3COC(=O)[C@H]32)OCO4)cc(OC)c1OC`, the IC50 was 0.013 µM in the assay with P388, 0.025 µM in the assay on A549 and 0.025 µM in the assay on HT-29.

With `COc1cc([C@@H]2c3cc4c(cc3[C@@H](OC)[C@H]3COC(=O)[C@H]23)OCO4)cc(OC)c1OC`, the IC50 in the assay on P388 came out at 0.06 µM; with A549, 0.06 µM; in the assay on HT-29, 1.2 µM.

Turning to `COc1cc([C@@H]2c3cc4c(cc3[C@H](OC)[C@@H](COC(C)=O)[C@@H]2COC(C)=O)OCO4)cc(OC)c1OC`, the IC50 in the assay with P388, in the assay with A549 and in the assay with HT-29 was 9.7 µM in each case.

For `COc1cc([C@@H]2c3cc4c(cc3[C@H](O)[C@H]3COC(=O)[C@@H]23)OCO4)cc(OC)c1OC` [AXL-1717], the IC50 in the assay on P388, with A549 and in the assay on HT-29 was 6 µM throughout.

Regarding `COc1cc([C@@H]2c3cc4c(cc3[C@@H](O)[C@H]3COC(=O)[C@H]23)OCO4)cc(OC)c1OC` [EPIPODOPHYLLOTOXIN], the IC50 in the assay on P388, in the assay on A549 and in the assay with HT-29 was 0.06 µM each time.

For the compound `COc1cc([C@@H]2c3cc4c(cc3[C@H](O)[C@H]3COC(=O)[C@H]23)OCO4)cc(OC)c1OC` [PODOFILOX], the IC50 with HT-29 was determined as 0.0029 µM.

A word on the IC50: it is the concentration that gives 50% inhibition. Low values mean higher potency, high ones lower potency.
